Results reported in patent US20100035865A1, “Sulfonamides and Pharmaceutical Compositions Thereof” (PFIZER INC, priority 2007, published 2010).
Several values for one entry are separate records, joined by “and”; a condition that tells them apart may be missing. Identical values can stand only once. Like-named read-outs stand apart in the source and are kept apart here.

Test system: AMPA receptors
Test: AMPA ES Cell FLIPR Screen, G7330B (EC50 and % effect)
Type: cell-based, murine
Details: for EC50: ES cell-derived neurons, 32 uM AMPA challenge
Experimental: The murine ES cell line used was E14-Sx1-16C, which has a targeted mutation in the Sox1 gene, a neuroectodermal marker, that offers G418 resistance when the Sox1 gene is expressed (Stem Cell Sciences). ES cells were maintained undifferentiated as previously described (Roach). […] ES cells were plated on gelatin-coated dishes (BD Biosciences), the media was changed daily and the cells were dissociated with 0.05% Trypsin EDTA (Invitrogen) every other day.
Embryoid Body Formation: Prior to embryoid body (EB) formation the ES cells were weaned from FBS onto Knockout Serum Replacement (KSR) (Invitrogen). To form EBs, ES cells were dissociated into a single cell suspension then 3×10^6 cells were plated in bacteriology dishes (Nunc 4014) and grown as a suspension culture in NeuroEB-I medium that consisted of Knockout™ D-MEM (Invitrogen), supplemented with 10% KSR (Invitrogen), 0.2 mM L-Glutamine (Invitrogen), 0.1 mM MEM non-essential amino acids (Invitrogen), 30 μg/ml Gentamicin (Invitrogen), 1000 u/ml ESGRO (Chemicon), 0.1 mM 2-Mercaptoethanl (Sigma) and 150 ng/ml Transferrin (Invitrogen). The plates were put on a Stovall Belly Button shaker in an atmospheric oxygen incubator. The media was changed on day 2 of EB formation with NeuroEB-I and on day 4 with NeuroEB-II (NeuroEB-I plus 1 μg/ml mNoggin [R&D Systems]).
Neuronal Precursor Selection and Expansion: On day 5 of EB formation, EBs were dissociated with 0.05% Trypsin EDTA, and 4×10^6 cells/100 mm dish were plated on Laminin coated tissue culture dishes in NeuroII-G418 medium that consisted of a base medium of a 1:1 mixture of D-MEM/F12 supplemented with N2 supplements and NeuroBasal Medium supplemented with B27 supplement and 0.1 mM L-Glutamine (all from Invitrogen). The base medium was then supplemented with 10 ng/ml bFGF (Invitrogen), 1 μg/ml mNoggin, 500 ng/ml SHH-N, 100 ng/ml FGF-8b (R&D Systems), 1 μg/ml Laminin and 200 μg/ml G418 (Invitrogen) for selection of neuronal precursors expressing Sox-1. The plates were put in an incubator that contained 2% Oxygen and were maintained in these conditions. During the 6-day selection period, the NeuroII media was changed daily. On day 6, the surviving neuronal precursor foci were dissociated with 0.05% Trypsin EDTA and the cells were plated at a density of 1.5×10^6 cells/100 mm Laminin coated dish in NeuroII-G418 medium. The cells were dissociated every other day for expansion, and prepared for Cryopreservation at passage 3 or 4. The cryopreservation medium contained 50% KSR, 10% Dimethyl Sulfoxide (DMSO) (Sigma) and 40% NeuroI-G418I medium. Neuronas precursors were crypreserved at a concentration of 4×10^6cells/ml and 1 ml/cryovial in a controlled rate freezer overnight then transferred to an ultra-low freezer or liquid nitrogen for long-term storage,
Neuronal Differentiation: Cryopreserved ES cell-derived neuronal precursors were thawed by the rapid thaw method in a 37-degree water-bath. The cells were transferred from the cryovial to a 100 mm Laminin coated tissue culture dish that already contained NeuroII-G418 that had been equilibrated in a 2% Oxygen incubator. The media was changed with fresh NeuroII-G418 the next day. The cells were dissociated every other day as described above for expansion to generate enough cells to plate for the screen. For the screen, the cells were plated into 384-well poly-d-lysine coated tissue culture dishes (BD Biosciences) by the automated SelecT at a cell density of 6K cells/well in differentiation medium NeuroIII that contained a 4:1 ratio of the NeuroBasalMedium/B27:D-MEM/F12/N2 supplemented with 1 μM cAMP (Sigma), 200 μM Ascorbic Acid (Sigma), 1 μg/ml Laminin (Invitrogen) and 10 ng/ml BDNF (R&D Systems). The plates were put in an incubator with 2% Oxygen and allowed to complete the differentiation process for 7 days. The cells could then be used over a 5-day period for the high throughput screen.
Procedure for AMPA ES Cell FLIPR Screen […]

[1] = Dose 32.0 uM, individual determinations
[2] = individual determinations, read-out: G7330B (U): EC50
[3] = mean of individual determinations (range and n in cells below), read-out: G7330B mean EC50
[4] = Dose 31.6 uM, individual determinations

EC50 [2]	EC50 [3] [µM]	SMILES	G7330B (U): % Effect [1]	G7330B (U): % Effect [4]
> 32 µM	> 32	CC(C)S(=O)(=O)NC1CCN(C)CC1c1ccc(-c2ccccc2)cc1 (stereo not drawn) [Example 25, Propane-2-sulfonic acid(trans-3-biphenyl-4-yl-1-methyl-piperidin-4-yl)-amide]	−0.323% and 0.295% and 2.72%	–
11.7 µM	11.7	CC(=O)N1CC[C@@H](NS(=O)(=O)C(C)C)[C@H](c2ccc(NC(=O)c3cc(F)cc(F)c3)cc2)C1 (relative stereo) [Example 40, N-{4-[trans-1-Acetyl-4-(propane-2-sulfonylamino)-piperidin-3-yl]-phenyl}-3,5-difluoro-benzamide]	–	152% and 179% and 176%
10.4 µM and > 31.6 µM and > 10 µM	> 18.2	CCS(=O)(=O)NC1CCOCC1c1ccc(-c2ccccc2)cc1 (stereo not drawn) [Example 16, Ethanesulfonic acid(trans-3-biphenyl-4-yl-tetrahydro-pyran-4-yl)-amide]	153% and 141% and 140%	–
–	> 4.2	CC(C)S(=O)(=O)N[C@H]1CN(C)CC[C@@H]1c1ccc(-c2ccccc2)cc1 [Example 3, Propane-2-sulfonic acid ((3R,4R)-4-biphenyl-4-yl-1-methyl-piperidin-3-yl)-amide]	99.8% and 94.3% and 83.1% and 129% and 98.9% and 119%	–

Continued, compound first:

SMILES	EC50 [2]	EC50 [3] [µM]	G7330B (U): % Effect [1]	G7330B (U): % Effect [4]
CC(C)S(=O)(=O)NC1COCCC1c1ccc(-c2ccccc2)cc1 (stereo not drawn) [Example 31, Propane-2-sulfonic acid(cis-4-biphenyl-4-yl-tetrahydro-pyran-3-yl)-amide]	> 32 µM	> 32	18.3% and 11.0% and 14.5%	–
CC(C)S(=O)(=O)NC1CCNCC1c1ccc(-c2ccccc2C#N)cc1 (stereo not drawn) [Example 20, Propane-2-sulfonic acid[trans-3-(2′-cyano-biphenyl-4-yl)-piperidin-4-yl]-amide]	> 32 µM	> 32	39.9% and 48.6% and 44.4%	–
CNC(=O)c1ccc(-c2ccc([C@@H]3CCOC[C@H]3NS(=O)(=O)C(C)C)cc2)cc1 (relative stereo) [Example 38, 4′-[trans-3-(Propane-2-sulfonylamino)-tetrahydro-pyran-4-yl]-biphenyl-4-carboxylic acid methylamide]	> 10 µM	> 10	–	–
CC(C)S(=O)(=O)N[C@@H]1CCNC[C@H]1c1ccc(-c2ccccc2C(N)=O)cc1 (relative stereo) [Example 21, 4′-[trans-4-(Propane-2-sulfonylamino)-piperidin-3-yl]-biphenyl-2-carboxylic acid amide]	> 32 µM	> 32	0.573% and 0.266% and 0.149%	–
CC(C)S(=O)(=O)N[C@@H]1COCC[C@H]1c1ccc(-c2ccccc2Cl)cc1 [Example 36, Propane-2-sulfonic acid[trans-4-(2′-chloro-biphenyl-4-yl)-tetrahydro-pyran-3-yl]-amide]	7.04 µM	7.04	–	–
CC(C)S(=O)(=O)NC1CCOCC1c1ccc(-c2ccccc2)cc1 (stereo not drawn) [Example 15, Propane-2-sulfonic acid(trans-3-biphenyl-4-yl-tetrahydro-pyran-4-yl)-amide]	2.84 µM and 3.14 µM and 5.42 µM	3.64	108% and 109% and 101%	–
CC(C)S(=O)(=O)NC1CCNCC1c1ccc(-c2ccccc2)cc1 (stereo not drawn) [Example 18, Propane-2-sulfonic acid(trans-3-biphenyl-4-yl-piperidin-4-yl)-amide]	> 32 µM	> 32	5.77% and 3.59% and 3.97%	–
CC(C)S(=O)(=O)N[C@H]1COCC[C@]1(O)c1ccc(-c2ccccc2)cc1 (relative stereo) [Example 41, Propane-2-sulfonic acid((3S,4S)-rel-4-biphenyl-4-yl-4-hydroxytetrahydro-pyran-3-yl)-amide]	3.05 µM	3.05	–	58.3% and 66.6%
